What was measured:
[1] = system: a-syn oligomers in HEK293 cells; assay: Oligomers screen (split YFP-a-syn protein fragment complementation, FACS); assay type: cell-based, human; settings: for Reads GFP High: FACS fraction GFP High; for Reads GFP Inter: FACS fraction GFP Inter; for Reads GFP Neg: FACS fraction GFP Neg
Source text: To detect a-syn oligomers, a protein fragment complementation assay (PCA) of a-syn oligomerization in HEK293 cells (14) was used. In this assay, human A53T a-syn was fused to either the C- or N-terminal half of yellow fluorescent protein (YFP). No fluorescence is detectable while a-syn exists in monomers but, when a-syn oligomerizes, the two halves of YFP come in close enough proximity to form a functional, spontaneously fluorescent protein. […] By using fluorescence activated cell sorting (FACS), cells expressing Flag-tagged peptides that directly or indirectly interfered with a-syn oligomer formation were isolated and then the peptides were identified from genomic DNA (FIG. 1A). The screens yielded 10 hits (Table 1). The hit with the most reads (i.e., the most abundant) was the same peptide in all screens: IPIQLKA (SEQ ID NO: 1) (PDpep1) (Table 2). […] Lead peptide targets CHMP2B, a member of ESCRT-III
(§1) PCR primers that included the Illumina adaptor sequences were used to amplify peptide coding sequences recovered from selection and cell sorting. Results were demultiplexed, and peptide counts were tallied. After demultiplexing, only reads with an average quality Phred score of >30 were selected, and frequencies were calculated. Finally, the reads were then normalized to the total number of peptides read for that sample population, and a scalar factor was applied. In parallel, ˜25 individual colonies were Sanger sequenced to compare to the NGS data.
(§2) Lentiviruses were made in a 15 cm dish format by transfecting packaging cells (293T) with a three-plasmid system as previously described. Viral transduction of HEK293T cells, tet-off split luciferase a-syn cells, tet-off parent cells, and SH-SY5Y cells were performed with a multiplicity of infection of 0.3 (MOI=0.3). Infected cells were selected in puromycin-containing medium to eliminate uninfected cells and three aliquots of cells were collected for sampling of the initial (TO) cell population. Cells were treated with MG132 at concentrations of 0 μM, 10 μM, 25 μM or 50 μM. For the cell viability screen, surviving cells were collected and gDNA was extracted for identification of peptide inhibitors of cell toxicity. For the inhibition of a-syn aggregation screen, split YFP-a-syn constructs were transfected following stable expression of the peptides. Cells were sorted based on their GFP fluorescence intensities with a FACSVantage SE cell sorter (BD Bioscience).
Cells were harvested by trypsin treatment and centrifuged at 500×g for 5 minutes. The pellet was resuspended in ice-cold PBS and centrifuged again. The pellet was then resuspended at a concentration of 4×10^6 cells/ml in the sorting buffer, which is PBS containing 100 Kunitz Dnase l/ml, 10 μg/ml propidium iodide (Sigma) and 2% FBS. The sorting solution was also supplemented with either 10 μM forskolin, 100 μM 5,6-Dichlorobenzimidazole riboside (DRB, Sigma), 10 μM forskolin (Sigma) and 100 μM DRB or DMSO, as a control. The cells were then sent through a 40 μm filter to remove large clumps and loaded into either a FACScan Flow Cytometer (BD Bioscience) for cell analysis or a FACSVantage SE cell sorter (BD Bioscience) for cell sorting. The cells with positive propidium iodide staining (i.e., dead cells) were first eliminated from the analysis or sorting pool. For cell sorting, the desired population, either the most or least bright EGFP-positive cells, according to the purpose of the experiments (see Results), was sorted into either 15 ml conical tubes or 96-well plates, which both contained complete DMEM culture media.
Genomic DNA (gDNA) from peptide expressing cells at different time-points was extracted using QIAamp DNA Blood Mini Kit. PCR amplifications of peptides from gDNA in parallel with the lentiviral plasmid library (naïve library) were performed using indexed Illumina PCR primers to incorporate both the Illumina adapter sequences and indexing sequences. […]

[2] = system: HEK293 cells overexpressing human a-syn (WT); assay: Cytotoxicity screen of lentiviral 7-mer peptide library, Alpha Syn (WT) cells under MG132; assay type: cell-based; settings: for Reads 0 uM MG132 / Reads 10 UM MG132 / Reads 25 UM MG132: normalized Illumina peptide counts
Source text: (§3) A screening system to discover candidate peptides to perturb endogenous PPIs based on libraries of short linear interaction motifs that mediate a large fraction (˜30%) of human PPIs (10-12) was recently developed. Here, a lentiviral library of 50,549 7-mer peptide motifs (13) on a green fluorescent protein (GFP) scaffold (FIG. 1A) was used. Cells in a pooled format were infected and the amino acid sequence of each peptide served as its own barcode. By using a low multiplicity of infection followed by puromycin selection, each infected cell expressed one unique GFP-peptide. Peptides that reduced a-syn-mediated cytotoxicity or a-syn oligomers in parallel (FIG. 1A), were screened for.
(§4) To cause cytotoxicity relevant to PD, proteostatic stress in HEK293 cells was induced by inhibiting the proteasome with MG132 and inducing the overexpression of human a-syn (WT) from idiopathic PD in one screen and the more toxic A53T mutant from familial PD in a second screen. The combination of a-syn overexpression and pharmacological proteasome inhibition led to death of most cells, with only those that expressed a protective peptide surviving. By extracting genomic DNA from the surviving cells and amplifying the peptide coding sequences, the protective peptides (FIG. 1A) were identified.
as §1, §2
(§5) Genomic DNA (gDNA) from peptide expressing cells at different time-points was extracted using QIAamp DNA Blood Mini Kit. PCR amplifications of peptides from gDNA in parallel with the lentiviral plasmid library (naïve library) were performed using indexed Illumina PCR primers to incorporate both the Illumina adapter sequences and indexing sequences. Each 50 μl reaction contained 3.2 μg of template, 2×PCR buffer, 2× enhancer solution, 300 μM each dNTP, 900 nM each of Adapter A (5′-[…]-[…]-3′) (SEQ ID NO: 42) and Adapter B (5′-[…]-[…]-3′) (SEQ ID NO: 43), 1 mM MgSO4, 3.75 units of Platinum Pfx polymerase, and water to 50 μl. The PCR reaction was performed by denaturing at 94° C. for 5 minutes, followed by cycling (94° C. for 30 seconds, 65° C. for 30 seconds, 68° C. for 30 seconds)×28 cycles, 68° C. for 5 minutes, then cooling to 4° C. The resulting 244 bp product was purified by electrophoresis in 2% agarose followed by gel extraction. Peptide libraries were quantified using Quant-It assay (Invitrogen) and pooled. […]

[3] = system: HEK293 cells overexpressing A53T a-syn; assay: Cytotoxicity screen of lentiviral 7-mer peptide library, Alpha syn A53T cells under MG132; assay type: cell-based, human; settings: for Reads 0 uM MG132 / Reads 10 UM MG132 / Reads 25 UM MG132 / Reads 50 UM MG132: normalized Illumina peptide counts
Source text: as §3, §4, §1, §2, §5

| Substance | Reads Ratio [1] | Reads GFP High [1] | Reads GFP Inter [1] | Reads GFP Neg [1] | Slope Norm Reads [2] | Reads 0 uM MG132 [2] | Reads 10 UM MG132 [2] | Reads 25 UM MG132 [2] | Slope Norm Reads [3] | Reads 0 uM MG132 [3] | Reads 10 UM MG132 [3] | Reads 25 UM MG132 [3] | Reads 50 UM MG132 [3] |
| --- | --- | --- | --- | --- | --- | --- | --- | --- | --- | --- | --- | --- | --- |
| WPRYPHI [7-mer library hit, oligomers screen] | 47.36 | 1 | 0 | 92 |  |  |  |  |  |  |  |  |  |
| AAYNLCA [7-mer library hit, Alpha Syn screen] |  |  |  |  | 0.07 | 1 | 14 | 19 |  |  |  |  |  |
| LPSKIYK [7-mer library hit, oligomers screen] | 29.53 | 1 | 0 | 57 |  |  |  |  |  |  |  |  |  |
| QVSVAQQ [7-mer library hit, A53T screen] |  |  |  |  |  |  |  |  | 0.69 | 45 | 13 | 120 | 246 |
| TQKRELT [7-mer library hit, oligomers screen] | 35.64 | 1 | 0 | 69 |  |  |  |  |  |  |  |  |  |
| NNQYSFV [7-mer library hit, oligomers screen] | 30.04 | 1 | 0 | 58 |  |  |  |  |  |  |  |  |  |
| PLPTGMG [7-mer library hit, Alpha Syn screen] |  |  |  |  | 0.08 | 1 | 3 | 20 |  |  |  |  |  |
| QAELSNS [7-mer library hit, A53T screen] |  |  |  |  |  |  |  |  | 0.69 | 6 | 8 | 10 | 235 |
| QSPSSAW [7-mer library hit, A53T screen] |  |  |  |  |  |  |  |  | 0.82 | 9 | 45 | 59 | 284 |
| LKRDQPV [7-mer library hit, oligomers screen] | 30.30 | 3 | 0 | 118 |  |  |  |  |  |  |  |  |  |
| RAPSCHL [7-mer library hit, Alpha Syn screen] |  |  |  |  | 0.15 | 1 | 13 | 33 |  |  |  |  |  |
| LPASMPC [7-mer library hit, Alpha Syn screen] |  |  |  |  | 0.09 | 2 | 16 | 27 |  |  |  |  |  |
| QSVVTAP [7-mer library hit, A53T screen] |  |  |  |  |  |  |  |  | 1.38 | 8 | 6 | 37 | 465 |
| VYLDILG [7-mer library hit, oligomers screen] | 30.55 | 1 | 0 | 59 |  |  |  |  |  |  |  |  |  |
| EDVNKCV [7-mer library hit, A53T screen] |  |  |  |  |  |  |  |  | 0.68 | 6 | 6 | 13 | 233 |
| LQVGVAV [7-mer library hit, Alpha Syn screen] |  |  |  |  | 0.09 | 1 | 25 | 23 |  |  |  |  |  |
| ECHTKIR [7-mer library hit, oligomers screen] | 39.21 | 1 | 0 | 76 |  |  |  |  |  |  |  |  |  |
| DWLMVNL [7-mer library hit, Alpha Syn screen] |  |  |  |  | 0.13 | 1 | 13 | 29 |  |  |  |  |  |
| CKYRSVL [7-mer library hit, A53T screen] |  |  |  |  |  |  |  |  | 1.30 | 5 | 7 | 11 | 438 |
| GWTTVRR [7-mer library hit, A53T screen] |  |  |  |  |  |  |  |  | 0.94 | 15 | 1 | 29 | 322 |
| MQMKLSQ [7-mer library hit, oligomers screen] | 36.15 | 1 | 0 | 70 |  |  |  |  |  |  |  |  |  |
| QSVLQQV [7-mer library hit, A53T screen] |  |  |  |  |  |  |  |  | 0.82 | 13 | 2 | 12 | 282 |
| CMVHSAG [7-mer library hit, Alpha Syn screen] |  |  |  |  | 0.08 | 4 | 14 | 33 |  |  |  |  |  |
| LSGECVP [7-mer library hit, Alpha Syn screen] |  |  |  |  | 0.07 | 3 | 28 | 28 |  |  |  |  |  |
| CFLFQIQ [7-mer library hit, oligomers screen] | 45.32 | 1 | 0 | 88 |  |  |  |  |  |  |  |  |  |
| PAMQIDG [7-mer library hit, A53T screen] |  |  |  |  |  |  |  |  | 0.96 | 32 | 20 | 53 | 337 |
| GAAAGGT [7-mer library hit, Alpha Syn screen] |  |  |  |  | 0.06 | 1 | 10 | 17 |  |  |  |  |  |
